US20230039219A1, “Improved Cell-Permeable Nuclear Import Inhibitor Synthetic Peptide for Inhibition of Cytokine Storm or Inflammatory Disease and Use Thereof” (priority 2020, published 2023)
Bridge positions count the residues as written; N and C are the ends. Ends that are not written are not given here. Peptide text beside a SMILES is read from it.

Experiments:
[1] = system: LPS/D-Gal acute liver injury model; assay: LPS/D-galactosamine-induced acute liver injury model; conditions: LPS/D-Gal challenge; FIG. 1, 2, 4
[2] = parameters: species or system C57BL/6 mice; conditions: mouse, in vivo, iv
Experimental: To evaluate the pharmacokinetics of iCP-NI in the lungs, 6-8 weeks old C57BL/6 mice were intravenously administered with 100 mg/kg of FITC-conjugated iCP-NI. Subsequently, mice were sacrificed at various time points and lung tissues were obtained for pharmacokinetic analysis. Also, other tissues (brain, heart, liver, spleen, kidney, small/large intestine and pancreas) were collected for distribution of iCP-NI analysis. Representative lung tissue specimens were perfusion-fixed with 4% paraformaldehyde (PFA; BIOSESANG, Cat No. PC2031-100-00) and incubated in 30% sucrose solution overnight at 4° C. Next, specimens were embedded in optimal cutting temperature (OCT) compound (Leica Biosystems, Cat No. 3801480) and cryo-sectioned to a 10 μm thickness onto microscope glass slide. The cryo-sectioned samples were washed thoroughly with PBS and incubated with ammonium chloride (NH4Cl, Sigma-Aldrich, Cat No. A9434) solution for 20 minutes at room temperature (RT). The samples were mounted with DAPI-containing mounting solution (Invitrogen, Cat No. 00-4959-52) and visualized by fluorescence microscopy using a confocal laser scanning microscope system (Leica SP8) and the images were processed with Leica LAS X software).

Row | Compound | effect on survival, comparison in words [1] | time high levels remained in lung tissue [2]
1 | 1NLS: linear nuclear localization sequence from NF-κB1 (p50); Table 1 prints VQRKRQKLMP (SEQ ID NO. 8) (NLS) [Structure 1NLS] | not enhanced | –
2 | CC[C@H](C)[C@H](N)C(=O)N[C@@H](C)C(=O)N[C@@H](C)C(=O)N[C@H](C(=O)N[C@@H](CC(C)C)C(=O)N[C@@H](C)C(=O)N[C@@H](C)C(=O)N1CCC[C@H]1C(=O)N[C@@H](C)C(=O)N[C@@H](CC(C)C)C(=O)N[C@H](C(=O)N1CCC[C@H]1C(=O)N[C@H]1CSSC[C@@H](C(=O)O)NC(=O)[C@@H]2CCCN2C(=O)[C@H](CCSC)NC(=O)[C@H](CC(C)C)NC(=O)[C@H](CCCCN)NC(=O)[C@H](CCC(N)=O)NC(=O)[C@H](CCCNC(=N)N)NC(=O)[C@H](CCCCN)NC(=O)[C@H](CCCNC(=N)N)NC(=O)[C@H](CCC(N)=O)NC(=O)[C@H](C(C)C)NC1=O)C(C)C)C(C)C [iCP-NI] (H-IAAVLAAPALVPCVQRKRQKLMPC-OH; disulfide 13-24; N-terminus and C-terminus assumed) | – | ≥ 8 h
3 | cNLS: circular NLS CVQRKRQKLMPC (SEQ ID NO. 1), no aMTD (also: cyclised, mode not given here) | not enhanced | –
